The values below come from patent publication US20230218573A1, “INDOLE COMPOUNDS FOR THE TREATMENT OF NEURODEGENERATIVE DISEASES” (GALYAN BIO, INC., priority 2020, published 2023).

The subject of series [1] is KCNA1. As to the kind of experiment: Nanostring gene expression in STHdh 111/111 cells: Kcna. The following applies: treated STHdh 111/111 (Q111-10), 48 h; in comparison to untreated STHdh 111/111. It is filed as cell-based, mouse. How it is done:
Gene expression of certain transcripts of interest were measured using Nanostring Technology. […] Some STHdh 7/7 and STHdh 111/111 cell samples were not heat shocked and some wells were treated with Compound 22 at the indicated concentration on for 48 hours (Table 12). Some STHdh 7/7 and STHdh 111/111 cell samples were heat shocked for 3 hours some wells were treated with Compound 22 at the indicated concentration on for 48 hours (Table 13). Cells are washed with PBS, trypsinised, and gathered in a 15 ml falcon tube. After a short spin down for 3 minutes at 300 g, the cell pellet was washed with PBS once, before it was frozen down in liquid nitrogen. RNA was extracted with a standard protocol. The nCounter® Mouse Neuropathology Panel (Nanostring, Seattle) was used for gene expression analysis according to the manufacturer’s protocols.

In series [2] the test system is STHdh 7/7 striatal cells. Nature of the series: Cell viability of heat shocked STHdh 7/7 striatal cells. The following applies: Mus musculus, 48 hours treatment, read-out: Cell Viability striatal cells 3h heat shocked. In kind it is cell-based, mouse. Here is the method: RESULTS - Table 7b summarizes the effect of the compounds on cell viability. STHdh 7/7 were heat shocked for 3 hours and treated for 48 hours with small molecule compounds. Table 2 lists the cell viability in striatal cells after 48 hours.
Effect of Compound 22 on Cell Viability of Wildtype Striatal Neurons - STHdh 7/7 cells are striatal cells that express wildtype huntingtin. These cells were cultured in the same conditions as described above for STHdh 111/111. The neurons were first heat shocked for 3 hours at 41° C. as described above. After 48 hours of treatment with the small molecule Compounds, cell viability was determined using the method described above. The “buffer” control is represents cells treated with a buffer only, without any compounds added. Some of the compounds show higher cell viability in comparison to control heat shocked STHdh 7/7 neurons with buffer and no treatment (FIG. 9).

Series [3] relates to STHdh 111/111 striatal cells. Nature of the series: Cell viability (CellTiter Glo) of heat shocked STHdh 111/111 striatal cells. In kind it is cell-based, mouse.
Series [4] can be described thus: Body weight of R6/2 mice under chronic administration. In kind it is in vivo. How it is done: Methods - Total of 20 female and male R6/2 mice and 10 female and male wild-type littermate control mice (WT) were used in the study. The mice were genotyped and the R6/2 mice were divided into different treatment groups based on their litter and baseline body weight. The treatment with Vehicle or Compound 22(33 mg/kg; 5 ml/kg, i.p. QD) was started at 4 weeks of age after the baseline behavioral tests (FIG. 10). Body weights were measured at 3 weeks of age and twice a week until the end of the study.
The experimental groups were: • Group 1) 10 wild-type mice (mixed gender) treated with Vehicle (5 ml/kg, i.p., QD) starting at 4 weeks of age • Group 2) 10 R6/2 mice (mixed gender) treated with Vehicle (5 ml/kg, i.p., QD) starting at 4 weeks of age • Group 3) 10 R6/2 mice (mixed gender) treated with Compound 22 (33 mg/kg; 5 ml/kg, i.p. QD) starting at 4 weeks of age
44.3.7 - Compound Delivery and Dosing - Treatment with Compound 22 (33 mg/kg; 5 ml/kg, i.p. QD) or Vehicle was started at age week 4 and continued until the 12 weeks of age. The test articles were handled and stored and the dose formulations were prepared according to detailed instructions provided by the Sponsor.
44.3.8 - Body Weight - Body weight was measured starting at 3 weeks of age before treatment onset and two times per week on the same day (on Monday and Friday) until the end of the study.

`Cc1[nH]c2ccc(C(=O)NCCN(C(C)C)C(C)C)cc2c1C` [Compound 22]: in series [1], the “Kcna1 expression increased by” value was 68%. Also, the viability at 10 µM in series [2] was 34.9%; in series [3] (Mus musculus, STHdh 111/111, 10 µM, 48 hours treatment, read-out: Cell Viability striatal cells 3h heat shocked) it was 102%. Moreover, the “cell viability in comparison to pre-heat shock cell viability” value in series [3] (STHdh 111/111, 48 hours after 3 hours heat shock) is listed as 125%. Moreover, the “cell viability at 24 hours after treatment” value in series [3] (STHdh 111/111 after heat shock, versus STHdh 7/7 control cells) is given as “almost equivalent to the cell viability of STHdh 7/7 control cells”. For the same compound, the “body weight versus vehicle treated R6/2 mice” value in series [4] (33 mg/kg i.p. QD from 4 to 12 weeks of age, pooled genders, females, males) was “no significant differences”. Further, the “body weight loss versus untreated female R6/2 mice” value in series [4] (female R6/2 mice, week 12, 33 mg/kg i.p. QD) is “significantly improved”. Also, the “body weight loss improvement versus untreated male R6/2 mice” value in series [4] (male R6/2 mice, week 12, 33 mg/kg i.p. QD) was “not observed”.

As a reminder, the viability is a read-out of living cells in per cent, often relative to untreated cells.
